Measured values reported in patent US20260224555A1, “NEW PHENYLQUINOLONE COMPOUND HAVING ANTIBACTERIAL AND ANTI-CANCER FUNCTIONS AND PREPARATION THEREOF” (AlphaMol Science Ltd (Shanghai), priority 2022, published 2026).

Columns and labels:
Assay in all cases: In vitro anticancer activity test (MTT cell proliferation)
Format in all cases: cell-based
[1] = tested on: human breast cancer cell MFM223; conditions: MFM-223
Experimental: (§1) The anticancer activity of the compounds was tested using an in vitro cancer cell tests. The specific test method is as follows:
(§2) 1. Cell recovery and culture method: the cryovial was taken out from the liquid nitrogen container firstly, soaked directly in 37° C. warm water, and shaked from time to time to let it thaw as soon as possible. Then, the cryovial was transferred to a clean bench, and the lid was open. The cell suspension was taken into a centrifuge tube using a rubber-tipped dropper and more than 10 times the culture medium was added, mixed well, and centrifuged at 50 g for 5 minutes. Then, the supernatant was discarded, complete culture medium containing 10% fetal bovine serum was added to resuspend the cells, the cells was counted, the cell density was adjusted, and then inoculated into a culture bottle. The culture bottle was placed in a cell culture incubator at 5% CO2 and 37° C. The complete culture medium was replaced once the next day and the culture was continued.
(§3) 2. Cell passaging method: adherent cells in the logarithmic growth phase were placed in a clean bench, the original culture medium was discarded, and washed three times with 1×PBS. An appropriate amount of 0.25% trypsin digestion solution was added to moisten the cells, and then the trypsin solution was aspirated. The cells were placed in a cell culture incubator at 5% CO2 and 37° C. for digestion for a suitable time, and observed under a microscope. When 90% of the cells become round, the cells were moved immediately to the clean bench and complete culture medium was added to terminate digestion. Then, the cells were dislodged by pipetting up and down with a rubber-tipped dropper to single cells. The cells were counted, and the cell density was adjusted. The cells were inoculated into a suitable culture bottle or dish, added enough complete culture medium, and placed in a cell culture incubator at 5% CO2 and 37° C. for static culture.
(§4) For suspension cells in the logarithmic phase, the original culture medium was directly centrifuged at 50 g for 5 minutes, the supernatant was discarded, and the cells were washed once with PBS and centrifuged. After discarding the supernatant, the complete culture medium was added and the cells were dispersed using a rubber-tipped dropper. The cells are counted, and the cell density was adjusted. The cells were inoculated into appropriate culture bottles or culture dishes, and sufficient complete culture medium was added, and the cells were cultured in a cell culture incubator at 5% CO2 and 37° C.
(§5) 3. Cell proliferation assay: cells in good state in logarithmic phase were taken and appropriate amount of the cells was inoculated into 96-well plates according to the cell passage treatment method, with each well containing 180 μL complete medium. After the cells growth was recovered and the number of cells in each well is 5000±500, a drug was added for treatment.
(§6) After drug treatment during the experimental time, MTT solution with a final concentration of 0.5 mg/mL was added to each well, and placed in a cell culture incubator at 5% CO2 and 37° C. to allow a fully reaction of MTT with cells. After 4 hours, the solution in the 96-well plate was discarded, 100 µL of DMSO was added, and shaked to dissolve the formazan precipitated at the bottom of the plate, and the absorbance value of samples was detected at a wavelength of 570 nm using a microplate reader. Calculation method of cell viability rate: […]

[2] = tested on: human liver cancer cell HepG2
Experimental: as §1, §2, §3, §4, §5, §6

[3] = tested on: human prostate cancer cell PC-3
Experimental: as §1, §2, §3, §4, §5, §6

[4] = tested on: human colon cancer cell HCT 116
Experimental: as §1, §2, §3, §4, §5, §6

[5] = tested on: human renal cancer cell OS-RC-2
Experimental: as §1, §2, §3, §4, §5, §6

[6] = tested on: human glioma cell SNB-19
Experimental: as §1, §2, §3, §4, §5, §6

[7] = tested on: pancreatic cancer cell PNAC-1
Experimental: as §1, §2, §3, §4, §5, §6

[8] = tested on: human non-small cell lung cancer cell A549
Experimental: as §1, §2, §3, §4, §5, §6

[9] = tested on: human osteosarcoma cell U2-OS; conditions: U2OS
Experimental: as §1, §2, §3, §4, §5, §6

[10] = tested on: human gastric cancer cell MGC-803
Experimental: as §1, §2, §3, §4, §5, §6

[11] = tested on: human acute myeloid leukemia cell MOLM-13
Experimental: as §1, §2, §3, §4, §5, §6

[12] = tested on: human acute monocytic leukemia cell THP-1
Experimental: as §1, §2, §3, §4, §5, §6

[13] = tested on: human Burkitt's lymphoma cell Raji
Experimental: as §1, §2, §3, §4, §5, §6

[14] = tested on: human liver cancer cell BLE-7402
Experimental: as §1, §2, §3, §4, §5, §6

[15] = tested on: human malignant melanoma cell A375; conditions: A-375
Experimental: as §1, §2, §3, §4, §5, §6

[16] = tested on: Hela; conditions: Homo sapiens
[17] = tested on: human ovarian adenocarcinoma cell SK-OV-3
Experimental: as §1, §2, §3, §4

[18] = tested on: human breast cancer cell MCF-7; conditions: MCF7
Experimental: as §1, §2, §3, §4

[19] = tested on: human acute T-lymphoblastic leukemia cell Jurkat
Experimental: as §1, §2, §3, §4

[20] = tested on: human bladder transitional cell carcinoma cell T24; conditions: T-24
Experimental: as §1, §2, §3, §4

[21] = tested on: human epidermal carcinoma cell A431; conditions: A-431
Experimental: as §1, §2, §3, §4

[22] = tested on: human breast ductal carcinoma cell T-47D; conditions: T47D
Experimental: as §1, §2, §3, §4

IC50 [1]: 1 to 10 µM | IC50 [2]: 1 to 10 µM | IC50 [3]: 1 to 10 µM | IC50 [4]: 1 to 10 µM | IC50 [5]: 1 to 10 µM | IC50 [6]: 1 to 10 µM | IC50 [7]: 1 to 10 µM | IC50 [8]: 1 to 10 µM | IC50 [9]: 1 to 10 µM | IC50 [10]: 1 to 10 µM | IC50 [11]: 1 to 10 µM | IC50 [12]: 1 to 10 µM | IC50 [13]: 1 to 10 µM | IC50 [14]: 1 to 10 µM | IC50 [15]: 1 to 10 µM | IC50 [16]: 1 to 10 µM | IC50 [17]: 1 to 10 µM | IC50 [18]: 1 to 10 µM | IC50 [19]: 1 to 10 µM | IC50 [20]: 1 to 10 µM | IC50 [21]: 1 to 10 µM | IC50 [22]: 1 to 10 µM
Structure (SMILES): O=C(CCl)Nc1ncc(-c2cc3c(cc2F)c(=O)c(C(=O)O)cn3C2CC2)cc1F [Example 135]
